The NIST ThermoML archive (doi:10.1016/j.jct.2011.08.016)

Assay: xn = mol fraction of the nth substance listed
Conditions: Liquid, Vibrating tube method

CCCCCCCCCC [decane] + CCCCCCCC
Conditions | mass density [kg/m3]
333.12 K, 16000 kPa, x2 = 0.2801 | 707.59
333.12 K, 17000 kPa, x2 = 0.0616 | 713.28
333.12 K, 17000 kPa, x2 = 0.2801 | 708.43
333.12 K, 18000 kPa, x2 = 0.0616 | 714.06
333.12 K, 18000 kPa, x2 = 0.2801 | 709.25
333.12 K, 19000 kPa, x2 = 0.0616 | 714.88
333.12 K, 19000 kPa, x2 = 0.2801 | 710.06
333.12 K, 20000 kPa, x2 = 0.0616 | 715.65
333.12 K, 20000 kPa, x2 = 0.2801 | 710.83
333.12 K, 21000 kPa, x2 = 0.0616 | 716.44
333.12 K, 21000 kPa, x2 = 0.2801 | 711.62
333.12 K, 22000 kPa, x2 = 0.0616 | 717.15
333.12 K, 22000 kPa, x2 = 0.2801 | 712.4
333.12 K, 23000 kPa, x2 = 0.0616 | 717.89
333.12 K, 23000 kPa, x2 = 0.2801 | 713.12
333.12 K, 24000 kPa, x2 = 0.0616 | 718.59
333.12 K, 24000 kPa, x2 = 0.2801 | 713.84
333.12 K, 25000 kPa, x2 = 0.0616 | 719.3
333.12 K, 25000 kPa, x2 = 0.2801 | 714.53
333.13 K, 1000 kPa, x2 = 0.5314 | 686.94
333.13 K, 1000 kPa, x2 = 0.9623 | 672.68
333.13 K, 2000 kPa, x2 = 0.5314 | 687.94
333.13 K, 2000 kPa, x2 = 0.9623 | 673.73
333.13 K, 3000 kPa, x2 = 0.5314 | 688.95
333.13 K, 3000 kPa, x2 = 0.9623 | 674.77
333.13 K, 4000 kPa, x2 = 0.5314 | 689.94
333.13 K, 4000 kPa, x2 = 0.9623 | 675.8
333.13 K, 5000 kPa, x2 = 0.5314 | 690.92
333.13 K, 5000 kPa, x2 = 0.9623 | 676.82
333.13 K, 6000 kPa, x2 = 0.5314 | 691.92
333.13 K, 6000 kPa, x2 = 0.9623 | 677.85
333.13 K, 7000 kPa, x2 = 0.5314 | 692.89
333.13 K, 7000 kPa, x2 = 0.9623 | 678.88
333.13 K, 8000 kPa, x2 = 0.5314 | 693.87
333.13 K, 8000 kPa, x2 = 0.9623 | 679.95
333.13 K, 9000 kPa, x2 = 0.5314 | 694.82
333.13 K, 9000 kPa, x2 = 0.9623 | 680.98
333.13 K, 10000 kPa, x2 = 0.5314 | 695.75
333.13 K, 10000 kPa, x2 = 0.9623 | 681.98
333.13 K, 10990 kPa, x2 = 0.5314 | 696.68
333.13 K, 10990 kPa, x2 = 0.9623 | 682.99
333.13 K, 12000 kPa, x2 = 0.5314 | 697.6
333.13 K, 12000 kPa, x2 = 0.9623 | 683.98
333.13 K, 13000 kPa, x2 = 0.5314 | 698.5
333.13 K, 13000 kPa, x2 = 0.9623 | 684.93
333.13 K, 14000 kPa, x2 = 0.5314 | 699.4
333.13 K, 14000 kPa, x2 = 0.9623 | 685.89
333.13 K, 15000 kPa, x2 = 0.5314 | 700.28
333.13 K, 15000 kPa, x2 = 0.9623 | 686.87
333.13 K, 16000 kPa, x2 = 0.5314 | 701.15
333.13 K, 16000 kPa, x2 = 0.9623 | 687.76
333.13 K, 17000 kPa, x2 = 0.5314 | 702
333.13 K, 17000 kPa, x2 = 0.9623 | 688.67
333.13 K, 18000 kPa, x2 = 0.5314 | 702.88
333.13 K, 18000 kPa, x2 = 0.9623 | 689.57
333.13 K, 19000 kPa, x2 = 0.5314 | 703.68
333.13 K, 19000 kPa, x2 = 0.9623 | 690.49
333.13 K, 20000 kPa, x2 = 0.5314 | 704.48
333.13 K, 20000 kPa, x2 = 0.9623 | 691.35
333.13 K, 21000 kPa, x2 = 0.5314 | 705.27
333.13 K, 21000 kPa, x2 = 0.9623 | 692.18
333.13 K, 22000 kPa, x2 = 0.5314 | 706.05
333.13 K, 22000 kPa, x2 = 0.9623 | 693
333.13 K, 23000 kPa, x2 = 0.5314 | 706.81
333.13 K, 23000 kPa, x2 = 0.9623 | 693.78
333.13 K, 24000 kPa, x2 = 0.5314 | 707.53
333.13 K, 24000 kPa, x2 = 0.9623 | 694.55
333.13 K, 25000 kPa, x2 = 0.5314 | 708.26
333.13 K, 25000 kPa, x2 = 0.9623 | 695.28
333.14 K, 1000 kPa, x2 = 0.7736 | 679.32
333.14 K, 2000 kPa, x2 = 0.7736 | 680.38
333.14 K, 3000 kPa, x2 = 0.7736 | 681.42
333.14 K, 4000 kPa, x2 = 0.7736 | 682.44
333.14 K, 5000 kPa, x2 = 0.7736 | 683.46
333.14 K, 6000 kPa, x2 = 0.7736 | 684.5
333.14 K, 7000 kPa, x2 = 0.7736 | 685.49
333.14 K, 8000 kPa, x2 = 0.7736 | 686.5
333.14 K, 9000 kPa, x2 = 0.7736 | 687.47
333.14 K, 10000 kPa, x2 = 0.7736 | 688.42
333.14 K, 10990 kPa, x2 = 0.7736 | 689.42
333.14 K, 12000 kPa, x2 = 0.7736 | 690.37
333.14 K, 13000 kPa, x2 = 0.7736 | 691.27
333.14 K, 14000 kPa, x2 = 0.7736 | 692.21
333.14 K, 15000 kPa, x2 = 0.7736 | 693.1
333.14 K, 16000 kPa, x2 = 0.7736 | 694.02
333.14 K, 17000 kPa, x2 = 0.7736 | 694.9
333.14 K, 18000 kPa, x2 = 0.7736 | 695.77
333.14 K, 19000 kPa, x2 = 0.7736 | 696.62
333.14 K, 20000 kPa, x2 = 0.7736 | 697.46
333.14 K, 21000 kPa, x2 = 0.7736 | 698.28
333.14 K, 22000 kPa, x2 = 0.7736 | 699.09
333.14 K, 23000 kPa, x2 = 0.7736 | 699.86
333.14 K, 24000 kPa, x2 = 0.7736 | 700.61
333.14 K, 25000 kPa, x2 = 0.7736 | 701.34
